Laboratory results taken from ChEMBL document CHEMBL1201862, “PubChem BioAssay data set” (2004).
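Results reflect a 48-hour exposure of cells in 96-well plates to compound at five concentrations. GI50: concentration for 50% inhibition of growth.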 Calls of active or inactive are those of the source. Rule as the data show it: active = GI50 up to about 1.1 µM and inactive = higher.

Columns and labels:
Test in all cases: NCI tumour cell line growth inhibition, 48 h
SF-295 = system: SF-295
DU-145 = system: DU-145
HCC 2998 = system: HCC 2998
NCI-H522 = system: NCI-H522
CAKI-1 = system: CAKI-1
SK-MEL-28 = system: SK-MEL-28
SK-OV-3 = system: SK-OV-3
ACHN = system: ACHN
U-251 = system: U-251
MCF7 = system: MCF7
HCT-116 = system: HCT-116
NCI-H460 = system: NCI-H460
HL-60 = system: HL-60
T47D = system: T47D
SF-268 = system: SF-268
SW-620 = system: SW-620
HOP-92 = system: HOP-92
MDA-MB-435 = system: MDA-MB-435
OVCAR-4 = system: OVCAR-4
CCRF-CEM = system: CCRF-CEM

SMILES | GI50 (SF-295) | GI50 (DU-145) | GI50 (HCC 2998) | GI50 (NCI-H522) | GI50 (CAKI-1) | GI50 (SK-MEL-28) | GI50 (SK-OV-3) | GI50 (ACHN) | GI50 (U-251) | GI50 (MCF7) | GI50 (HCT-116) | GI50 (NCI-H460) | GI50 (HL-60) | GI50 (T47D) | GI50 (SF-268) | GI50 (SW-620) | GI50 (HOP-92) | GI50 (MDA-MB-435) | GI50 (OVCAR-4) | GI50 (CCRF-CEM)
O=c1c(C(c2cccnc2)c2c(O)oc3cc(O)ccc3c2=O)c(O)oc2cc(O)ccc12 | > 100 µM (inactive) | > 100 µM (inactive) | > 100 µM (inactive) | > 100 µM (inactive) | > 100 µM (inactive) | > 100 µM (inactive) | > 100 µM (inactive) | > 100 µM (inactive) | > 100 µM (inactive) | > 100 µM (inactive) | > 100 µM (inactive) | > 100 µM (inactive) | > 100 µM (inactive) | > 100 µM (inactive) | > 100 µM (inactive) | > 100 µM (inactive) | > 100 µM (inactive) | > 100 µM (inactive) | – | –
CCC(c1nc2ccccc2c(=O)n1NC(=O)C(C)(C)C)C1(O)CCCCC1 (centres undefined) | > 100 µM (inactive) | > 100 µM (inactive) | – | 67.8 µM (inactive) | > 100 µM (inactive) | > 100 µM (inactive) | > 100 µM (inactive) | > 100 µM (inactive) | > 100 µM (inactive) | > 100 µM (inactive) | > 100 µM (inactive) | > 100 µM (inactive) | > 100 µM (inactive) | > 100 µM (inactive) | > 100 µM (inactive) | > 100 µM (inactive) | > 100 µM (inactive) | > 100 µM (inactive) | > 100 µM (inactive) | 99.5 µM (inactive)
O=c1[nH]c(=O)n(C2CC(O)C(COP(=O)(OCC(Cl)(Cl)Cl)OCC(Cl)(Cl)Cl)O2)cc1F (centres undefined) | 0.123 µM (active) | 2.81 µM (inactive) | < 0.01 µM (active) | – | 0.3 µM (active) | > 28.6 µM (inactive) | > 48.6 µM (inactive) | 0.298 µM (active) | 2.95 µM (inactive) | 0.0619 µM (active) | 2.21 µM (inactive) | < 0.0226 µM (active) | 5.85 µM (inactive) | > 50.8 µM (inactive) | 1.24 µM (inactive) | > 100 µM (inactive) | 6.9 µM (inactive) | > 86.3 µM (inactive) | > 76 µM (inactive) | 0.195 µM (active)
C=C[C@]1(O[Si](C)(C)C)C[C@@]2(C(=O)OCC)C(O)C(=O)N3CCc4cc(OC)c(OC)cc4[C@]312 (some centres undefined) | > 100 µM (inactive) | > 100 µM (inactive) | – | – | > 100 µM (inactive) | > 100 µM (inactive) | > 100 µM (inactive) | > 100 µM (inactive) | > 100 µM (inactive) | 90.8 µM (inactive) | > 100 µM (inactive) | > 100 µM (inactive) | – | > 100 µM (inactive) | > 100 µM (inactive) | > 100 µM (inactive) | 24.9 µM (inactive) | > 100 µM (inactive) | > 100 µM (inactive) | > 100 µM (inactive)
Cc1ccc([N+](=O)[O-])c2c(NCCCN(C)C)ccnc12 | > 100 µM (inactive) | > 100 µM (inactive) | 20.3 µM (inactive) | 19.6 µM (inactive) | > 89.5 µM (inactive) | > 100 µM (inactive) | – | 57 µM (inactive) | 87.3 µM (inactive) | 39.4 µM (inactive) | 45.6 µM (inactive) | 23.2 µM (inactive) | 47.1 µM (inactive) | > 100 µM (inactive) | > 95.9 µM (inactive) | 30.7 µM (inactive) | 56.9 µM (inactive) | 21.6 µM (inactive) | 22.4 µM (inactive) | > 100 µM (inactive)
O=c1onc2c3ccccc3ncn12 | > 100 µM (inactive) | > 100 µM (inactive) | > 100 µM (inactive) | > 100 µM (inactive) | > 100 µM (inactive) | > 100 µM (inactive) | > 100 µM (inactive) | > 100 µM (inactive) | > 100 µM (inactive) | > 100 µM (inactive) | > 100 µM (inactive) | – | – | > 100 µM (inactive) | > 100 µM (inactive) | > 100 µM (inactive) | > 100 µM (inactive) | > 100 µM (inactive) | > 100 µM (inactive) | > 100 µM (inactive)
O=C(OC[C@H]1C[C@H]2C(=O)OCCC[C@H]2O1)c1ccccc1 | > 100 µM (inactive) | > 100 µM (inactive) | – | > 100 µM (inactive) | > 100 µM (inactive) | > 100 µM (inactive) | > 100 µM (inactive) | > 100 µM (inactive) | > 100 µM (inactive) | > 100 µM (inactive) | > 100 µM (inactive) | > 100 µM (inactive) | > 100 µM (inactive) | > 100 µM (inactive) | > 100 µM (inactive) | > 100 µM (inactive) | > 100 µM (inactive) | > 100 µM (inactive) | > 100 µM (inactive) | > 100 µM (inactive)
COc1ccc(/C=C(\NC(=O)c2ccccc2)C(=O)NN(C)c2ccnc3cc(Cl)ccc23)cc1OC | 36.2 µM (inactive) | 27.2 µM (inactive) | – | 21.8 µM (inactive) | 28.8 µM (inactive) | 26 µM (inactive) | > 100 µM (inactive) | 26.1 µM (inactive) | 19.7 µM (inactive) | 19.8 µM (inactive) | 34.6 µM (inactive) | 19 µM (inactive) | – | 30.4 µM (inactive) | 18.5 µM (inactive) | 22.1 µM (inactive) | 21.4 µM (inactive) | 21.3 µM (inactive) | 30.7 µM (inactive) | –
O=c1n(-c2ccccc2)c(=O)n2n1C1CCC2CC1 | > 100 µM (inactive) | > 100 µM (inactive) | – | – | > 100 µM (inactive) | > 100 µM (inactive) | > 100 µM (inactive) | > 100 µM (inactive) | > 100 µM (inactive) | > 100 µM (inactive) | > 100 µM (inactive) | > 100 µM (inactive) | > 100 µM (inactive) | > 100 µM (inactive) | > 100 µM (inactive) | > 100 µM (inactive) | > 100 µM (inactive) | > 100 µM (inactive) | – | > 100 µM (inactive)
Cc1c(Cl)ccc2c1NC(=O)C2(O)CC(=O)c1ccc(Cl)cc1Cl (centres undefined) | > 50 µM (inactive) | > 50 µM (inactive) | > 50 µM (inactive) | > 50 µM (inactive) | > 28.7 µM (inactive) | > 50 µM (inactive) | > 45.9 µM (inactive) | 36.7 µM (inactive) | 22.6 µM (inactive) | > 50 µM (inactive) | > 50 µM (inactive) | > 50 µM (inactive) | – | > 50 µM (inactive) | > 50 µM (inactive) | > 50 µM (inactive) | 23.6 µM (inactive) | > 50 µM (inactive) | > 50 µM (inactive) | 10.3 µM (inactive)
Cc1ccsc1/C=N/Nc1cnccn1 | > 100 µM (inactive) | > 100 µM (inactive) | > 100 µM (inactive) | – | > 100 µM (inactive) | > 100 µM (inactive) | > 100 µM (inactive) | > 100 µM (inactive) | > 100 µM (inactive) | 3.53 µM (inactive) | > 100 µM (inactive) | – | 35.9 µM (inactive) | > 100 µM (inactive) | > 100 µM (inactive) | > 100 µM (inactive) | > 100 µM (inactive) | > 100 µM (inactive) | > 100 µM (inactive) | > 100 µM (inactive)
N/C(=N\O)N/N=C/c1cc(Br)cc(Br)c1O | 4.98 µM (inactive) | 3.19 µM (inactive) | 6.53 µM (inactive) | 16.2 µM (inactive) | 0.461 µM (active) | 8.73 µM (inactive) | 7.14 µM (inactive) | 1.95 µM (inactive) | 2.78 µM (inactive) | 6.21 µM (inactive) | 4.24 µM (inactive) | 3.32 µM (inactive) | – | 1.75 µM (inactive) | 1.75 µM (inactive) | 8.95 µM (inactive) | 2.86 µM (inactive) | 9.48 µM (inactive) | 4.23 µM (inactive) | 0.491 µM (active)
NC(=O)NCCSC1CCCCC1O (centres undefined) | > 100 µM (inactive) | > 100 µM (inactive) | – | > 100 µM (inactive) | > 100 µM (inactive) | > 100 µM (inactive) | > 100 µM (inactive) | > 100 µM (inactive) | > 100 µM (inactive) | > 100 µM (inactive) | > 100 µM (inactive) | > 100 µM (inactive) | – | > 100 µM (inactive) | > 100 µM (inactive) | > 100 µM (inactive) | > 100 µM (inactive) | > 100 µM (inactive) | > 100 µM (inactive) | –
Nc1nccc(NCC2(CO)CC(CCc3ccccc3)C2)n1 (centres undefined) | 10.8 µM (inactive) | 12.4 µM (inactive) | 19.5 µM (inactive) | 11.8 µM (inactive) | 11.8 µM (inactive) | 16.8 µM (inactive) | – | 13.9 µM (inactive) | 13.7 µM (inactive) | 10 µM (inactive) | 10.8 µM (inactive) | 12.3 µM (inactive) | 6.18 µM (inactive) | 6.52 µM (inactive) | > 10 µM (inactive) | 18.3 µM (inactive) | 4.93 µM (inactive) | 13.7 µM (inactive) | 20.7 µM (inactive) | 15.1 µM (inactive)
CC(=O)OCC1OC(n2c(N)c(C#N)c(-c3ccc(C)cc3)c(C#N)c2=S)C(OC(C)=O)C(OC(C)=O)C1OC(C)=O (centres undefined) | 25.4 µM (inactive) | 15.4 µM (inactive) | 16.9 µM (inactive) | – | 63.7 µM (inactive) | 38.7 µM (inactive) | 24.5 µM (inactive) | 29.1 µM (inactive) | 17 µM (inactive) | 20.1 µM (inactive) | 46.1 µM (inactive) | 31.4 µM (inactive) | 87.5 µM (inactive) | 17.5 µM (inactive) | 15.2 µM (inactive) | 36 µM (inactive) | 15.2 µM (inactive) | 21.2 µM (inactive) | 41.9 µM (inactive) | 35.2 µM (inactive)
